Test results as given in patent US20230173086A1, “PEPTIDE CONJUGATES AND THERAPEUTIC AGENTS HAVING IMPROVED PHARMACOLOGICAL AND PHARMACOKINETIC PROPERTIES” (Resolute Bio, Inc., priority 2021, published 2023).
Read-outs that look alike come from different tables or passages of the source.

Test system: RBCs
Experimental: RBC binding ranked by MESF (molecules of equivalent soluble fluorescence), or intensity of fluorescent signal measured when RBCs were incubated with a given concentration of peptide.
High=MESF value>1000 fluorescent units
Medium=MESF Value from 300 to 1000 fluorescent units
Low=MESF Value from 15 to 300 fluorescent units

[1] = Table 3, structurally-diverse all-D-peptides

Substance | Classification of RBC binding properties (MESF) (Table 2, 1a analogs) | Classification of RBC binding properties (MESF) (Table 1, D-Ala scanning of 1a) | Classification of RBC binding properties (MESF) [1]
Ac-phe-trp-his-pro-trp-ala-met-met-tyr-lys-Gly-Gly-Gly-lys(Biotin)-NH2 [Peptide 2g] | Does Not Bind (MESF Value below 15 fluorescent units) | – | –
H-ala-pro-met-phe-tyr-trp-lys-his-met-trp-Gly-Gly-Gly-lys(Biotin)-NH2 [Peptide 2f] | Low (MESF Value from 15 to 300 fluorescent units) | – | –
H-ala-trp-his-pro-trp-ala-met-met-tyr-lys-Gly-Gly-Gly-lys(Biotin)-NH2 [Peptide 1b] | – | Low (MESF Value from 15 to 300 fluorescent units) | –
H-leu-his-his-pro-trp-pro-tyr-phe-tyr-lys-Gly-Gly-Gly-lys(Biotin)-NH2 [Peptide 3e] | – | – | Low (MESF Value from 15 to 300 fluorescent units)
H-leu-phe-his-pro-trp-pro-ala-phe-pro-lys-Gly-Gly-Gly-lys(Biotin)-NH2 [Peptide 3l] | – | – | High (MESF value>1000 fluorescent units)
H-leu-trp-his-pro-trp-ala-met-pro-glu-lys-Gly-Gly-Gly-lys(Biotin)-NH2 [Peptide 3m] | – | – | Low (MESF Value from 15 to 300 fluorescent units)
H-leu-trp-his-pro-tyr-leu-phe-leu-trp-lys-Gly-Gly-Gly-lys(Biotin)-NH2 [Peptide 3f] | – | – | Does Not Bind (MESF Value below 15 fluorescent units)
H-leu-trp-ser-pro-val-phe-phe-phe-pro-lys-Gly-Gly-Gly-lys(Biotin)-NH2 [Peptide 3n] | – | – | Does Not Bind (MESF Value below 15 fluorescent units)
H-met-phe-his-pro-phe-ala-phe-met-tyr-lys-Gly-Gly-Gly-lys(Biotin)-NH2 [Peptide 3o] | – | – | Medium (MESF Value from 300 to 1000 fluorescent units)
H-phe-ala-his-pro-trp-ala-met-met-tyr-lys-Gly-Gly-Gly-lys(Biotin)-NH2 [Peptide 1c] | – | Does Not Bind (MESF Value below 15 fluorescent units) | –
H-phe-phe-his-pro-phe-ala-trp-phe-his-lys-Gly-Gly-Gly-lys(Biotin)-NH2 [Peptide 3h] | – | – | Low (MESF Value from 15 to 300 fluorescent units)
H-phe-phe-his-pro-trp-ser-trp-thr-ser-lys-Gly-Gly-Gly-lys(Biotin)-NH2 [Peptide 3a] | – | – | High (MESF value>1000 fluorescent units)
H-phe-phe-his-pro-tyr-Gly-leu-phe-val-lys-Gly-Gly-Gly-lys(Biotin)-NH2 [Peptide 3b] | – | – | Medium (MESF Value from 300 to 1000 fluorescent units)
H-phe-phe-his-val-pro-val-phe-ser-val-lys-Gly-Gly-Gly-lys(Biotin)-NH2 [Peptide 3i] | – | – | Medium (MESF Value from 300 to 1000 fluorescent units)
H-phe-trp-ala-pro-trp-ala-met-met-tyr-lys-Gly-Gly-Gly-lys(Biotin)-NH2 [Peptide 1d] | – | Medium (MESF Value from 300 to 1000 fluorescent units) | –
H-phe-trp-his-L-Pro-trp-ala-met-met-tyr-lys-Gly-Gly-Gly-lys(Biotin)-NH2 [Peptide 2l] | Low (MESF Value from 15 to 300 fluorescent units) | – | –

Substance | Classification of RBC binding properties (MESF) (Table 2, 1a analogs) | Classification of RBC binding properties (MESF) (Table 1, D-Ala scanning of 1a) | Classification of RBC binding properties (MESF) [1]
H-phe-trp-his-NMeGly-trp-ala-met-met-tyr-lys-Gly-Gly-Gly-lys(Biotin)-NH2 [Peptide 2k] | Low (MESF Value from 15 to 300 fluorescent units) | – | –
H-phe-trp-his-ala-trp-ala-met-met-tyr-lys-Gly-Gly-Gly-lys(Biotin)-NH2 [Peptide 1e] | – | High (MESF value>1000 fluorescent units) | –
H-phe-trp-his-pro-ala-ala-met-met-tyr-lys-Gly-Gly-Gly-lys(Biotin)-NH2 [Peptide 1f] | – | Does Not Bind (MESF Value below 15 fluorescent units) | –
H-phe-trp-his-pro-trp-ala-ala-ala-tyr-lys-Gly-Gly-Gly-lys(Biotin)-NH2 [Peptide 2b] | High (MESF value>1000 fluorescent units) | – | –
H-phe-trp-his-pro-trp-ala-ala-met-tyr-lys-Gly-Gly-Gly-lys(Biotin)-NH2 [ig] | – | Does Not Bind (MESF Value below 15 fluorescent units) | –
H-phe-trp-his-pro-trp-ala-leu-leu-tyr-lys-Gly-Gly-Gly-lys(Biotin)-NH2 [Peptide 2c] | Does Not Bind (MESF Value below 15 fluorescent units) | – | –
H-phe-trp-his-pro-trp-ala-met-ala-tyr-lys-Gly-Gly-Gly-lys(Biotin)-NH2 [Peptide 1h] | – | Low (MESF Value from 15 to 300 fluorescent units) | –
H-phe-trp-his-pro-trp-ala-met-met-ala-lys-Gly-Gly-Gly-lys(Biotin)-NH2 [Peptide 1i] | – | Low (MESF Value from 15 to 300 fluorescent units) | –
H-phe-trp-his-pro-trp-ala-met-met-tyr-ala-Gly-Gly-Gly-lys(Biotin)-NH2 [Peptide 1j] | – | High (MESF value>1000 fluorescent units) | –
H-phe-trp-his-pro-trp-ala-met-met-tyr-lys-Gly-Gly-Gly-(H-phe-trp-his-pro-trp-ala-met-met-tyr-lys-Gly-Gly-Gly)-lys-Gly-Gly-lys(Biotin)-NH2 [Peptide 2d] | High (MESF value>1000 fluorescent units) | – | –
H-phe-trp-his-pro-trp-ala-met-met-tyr-lys-Gly-Gly-Gly-cys(trt)-Gly-lys(Biotin)-NH2 [Peptide 2h] | Does Not Bind (MESF Value below 15 fluorescent units) | – | –
H-phe-trp-his-pro-trp-ala-met-met-tyr-lys-Gly-Gly-Gly-lys(Biotin)-NH2 [Peptide 1a] | High (MESF value>1000 fluorescent units) | High (MESF value>1000 fluorescent units) | High (MESF value>1000 fluorescent units)
H-phe-trp-his-pro-trp-ala-met-met-tyr-lys-Gly-Gly-Gly-lys(C18diacid)-lys(Biotin)-NH2 [Peptide 2e] | Medium (MESF Value from 300 to 1000 fluorescent units) | – | –
H-phe-trp-his-pro-trp-ala-nle-nle-tyr-lys-Gly-Gly-Gly-lys(Biotin)-NH2 [Peptide 2a] | Medium (MESF Value from 300 to 1000 fluorescent units) | – | –
H-phe-trp-his-pro-trp-phe-phe-lys-thr-lys-Gly-Gly-Gly-lys(Biotin)-NH2 [Peptide 3c] | – | – | Low (MESF Value from 15 to 300 fluorescent units)
H-phe-trp-his-αMepro-trp-ala-met-met-tyr-lys-Gly-Gly-Gly-lys(Biotin)-NH2 [Peptide 2m] | Does Not Bind (MESF Value below 15 fluorescent units) | – | –
